Tests used:
wildtype AKT1 = target: T1, wildtype AKT1 (Homo sapiens, UniProt P31749); assay: AKT1 kinase assay, wildtype (TR-FRET, Lance); format: biochemical; details: full-length human recombinant wildtype AKT1 activated by PDPK1; Ulight-CREBtide substrate; either 50 μM ATP or 2 mM ATP
T1 construct: Purified human recombinant kinase full-length wildtype AKT1 was expressed in insect cells; made in house; host or cells: insect cells
Experimental: AKT1 kinase assay: Inhibitory effects of compounds on wildtype AKT1 were undertaken in a 10-pt dose response kinase activity assay measuring phospho-peptide product formation based on TR-FRET signal as described in the following paragraph.
(§1) Purified human recombinant kinase full-length wildtype AKT1 was expressed in insect cells and activated in vitro by PDPK1. Ulight™-CREBtide (PerkinElmer, catalog number TRF0107) was used as the peptide substrate. The reaction buffer consisted of 50 mM HEPES pH 7.5, 10 mM MgCl2, 0.01% Triton X-100, 0.01% BSA, 2 mM DTT, 0.6 nM AKT1, 50 nM Ulight™-CREBtide and either 50 μM ATP or 2 mM ATP. The compound solution was prepared as 10 mM DMSO stock. For the assay, a 1:3 serial dilution 10-pt dose response of test compounds, in duplicate, for each concentration were dispensed into a 384-well plate (Corning, catalog number 4513). Final DMSO concentration in the assay was 1%. The enzyme mixture (5 μL, 1.2 nM) were added and the mixture was incubated for 15 min at RT prior to the start of the kinase reaction by the addition of 5 μL substrate mixture (100 nM Ulight™-CREBtide). The reaction was stopped after 60 min of incubation at RT by the addition of 10 μL of Detection Mix (PerkinElmer. #CR97-100) consisting of Europium-anti-phospho-CREB (Ser133) (Perkin Elmer, catalog numberTRF0200). Incubation with the detection mix for a further 60 min allowed binding of antibody to the phospho-Ulight™ CREBtide. The fluorescence emissions at 620 nm and 665 nm after excitation at 350 nm was measured using Envision reader. The ratio of the emissions at 665 nm and at 620 nm provided the measure for the amount of phosphorylated CREBtide product of AKT1 kinase activity. To determine the IC50 values, the data was normalized (enzyme reaction without inhibitor=0% inhibition, all other assay components but no enzyme=100% inhibition) and IC50 values were calculated by a 4-parameter fit using an in-house developed protocol.

AKT1 E17K = target: T2, AKT1 E17K (Homo sapiens, UniProt P31749, E17K); assay: AKT1 E17K kinase assay (TR-FRET, Lance); format: biochemical; details: full-length human recombinant AKT1 E17K activated by PDPK1; Ulight-CREBtide substrate; either 50 μM ATP or 2 mM ATP
T2 construct: Purified human recombinant kinase full-length AKT1 E17K was expressed in insect cells; made in house; host or cells: insect cells
Experimental: AKT1 E17K kinase assay: Inhibitory effects of compounds on AKT1 E17K were undertaken in a 10-pt dose response kinase activity assay measuring phospho-peptide product formation based on TR-FRET signal as described in the following paragraph.
as §1, with “full-length” for “full-length wildtype”, “AKT1 E17K” for “AKT1”, “AKT1 E17K,” for “AKT1,”, “(PerkinElmer,” for “(PerkinElmer.”

T2 sequence (P31749 whole entry E17K): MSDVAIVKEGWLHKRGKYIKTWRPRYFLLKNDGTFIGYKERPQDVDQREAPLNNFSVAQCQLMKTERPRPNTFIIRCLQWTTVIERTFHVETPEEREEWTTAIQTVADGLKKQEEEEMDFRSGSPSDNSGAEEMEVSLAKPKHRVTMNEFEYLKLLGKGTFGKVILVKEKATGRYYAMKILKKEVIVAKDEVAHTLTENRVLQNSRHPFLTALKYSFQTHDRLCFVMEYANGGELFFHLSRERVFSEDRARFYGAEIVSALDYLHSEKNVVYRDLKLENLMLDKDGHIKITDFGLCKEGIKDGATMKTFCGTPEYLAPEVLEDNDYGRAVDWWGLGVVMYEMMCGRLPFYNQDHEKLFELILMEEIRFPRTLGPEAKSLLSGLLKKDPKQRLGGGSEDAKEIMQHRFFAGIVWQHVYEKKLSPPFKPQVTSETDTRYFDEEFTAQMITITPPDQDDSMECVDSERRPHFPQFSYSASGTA
T1 sequence (P31749 whole entry): as the sequence (P31749 whole entry E17K) above, with K17E counted along it

IC50 (wildtype AKT1)	IC50 (AKT1 E17K)	SMILES
< 500 nM	≥ 500 nM	Nc1ncccc1-c1nc2ccc(-c3ccccc3)nc2n1-c1ccc(C2CN(C[C@H]3CC[C@H](c4nsc(=O)[nH]4)CC3)C2)cc1 [Compound I-43, 3-((1r,4r)-4-((3-(4-(2-(2-aminopyridin-3-yl)-5-phenyl-3H-imidazo[4,5-b]pyridin-3-yl)phenyl)azetidin-1-yl)methyl)cyclohexyl)-1,2,4-thiadiazol-5(4H)-one]
< 500 nM	≥ 500 nM	Nc1ncccc1-c1nc2ccc(-c3ccccc3)nc2n1-c1ccc(C2CN(C[C@H]3CC[C@@H](c4nsc(=O)[nH]4)CC3)C2)cc1 [Compound I-44, 3-((1s,4s)-4-((3-(4-(2-(2-aminopyridin-3-yl)-5-phenyl-3H-imidazo[4,5-b]pyridin-3-yl)phenyl)azetidin-1-yl)methyl)cyclohexyl)-1,2,4-thiadiazol-5(4H)-one]
< 500 nM	≥ 500 nM	Nc1ncccc1-c1nc2ccc(-c3ccccc3)nc2n1-c1ccc(C2CCN(C[C@H]3CC[C@H](c4nsc(=O)[nH]4)CC3)CC2)cc1 [Compound I-45, 3-((1r,4r)-4-((4-(4-(2-(2-aminopyridin-3-yl)-5-phenyl-3H-imidazo[4,5-b]pyridin-3-yl)phenyl)piperidin-1-yl)methyl)cyclohexyl)-1,2,4-thiadiazol-5(4H)-one]
< 500 nM	≥ 500 nM	Nc1ncccc1-c1nc2ccc(-c3ccccc3)nc2n1-c1ccc(C2CCN(C[C@H]3CC[C@@H](c4nsc(=O)[nH]4)CC3)CC2)cc1 [Compound I-46, 3-((1s,4s)-4-((4-(4-(2-(2-aminopyridin-3-yl)-5-phenyl-3H-imidazo[4,5-b]pyridin-3-yl)phenyl)piperidin-1-yl)methyl)cyclohexyl)-1,2,4-thiadiazol-5(4H)-one]
< 500 nM	≥ 500 nM	CN(Cc1ccc(-n2c(-c3cccnc3N)nc3ccc(-c4ccccc4)nc32)cc1)[C@H]1CC[C@H](c2nsc(=O)[nH]2)CC1 [Compound I-47, 3-((1r,4r)-4-((4-(2-(2-aminopyridin-3-yl)-5-phenyl-3H-imidazo[4,5-b]pyridin-3-yl)benzyl)(methyl)amino)cyclohexyl)-1,2,4-thiadiazol-5(4H)-one]
< 500 nM	50 to 200 nM	CN(Cc1ccc(-n2c(-c3cccnc3N)nc3ccc(-c4ccccc4)nc32)cc1)[C@H]1CC[C@@H](c2nsc(=O)[nH]2)CC1 [Compound I-48, 3-((1s,4s)-4-((4-(2-(2-aminopyridin-3-yl)-5-phenyl-3H-imidazo[4,5-b]pyridin-3-yl)benzyl)(methyl)amino)cyclohexyl)-1,2,4-thiadiazol-5(4H)-one]

More lines, now with the values behind:

SMILES	IC50 (wildtype AKT1)	IC50 (AKT1 E17K)
Cc1nc(NC(=O)[C@H]2CC[C@H](c3nsc(=O)[nH]3)CC2)ccc1-n1c(-c2cccnc2N)nc2ccc(-c3ccccc3)nc21 [Compound I-38, (1r,4r)-N-(5-(2-(2-aminopyridin-3-yl)-5-phenyl-3H-imidazo[4,5-b]pyridin-3-yl)-6-methylpyridin-2-yl)-4-(5-oxo-4,5-dihydro-1,2,4-thiadiazol-3-yl)cyclohexane-1-carboxamide]	< 500 nM	≥ 500 nM
Cc1nc(NC(=O)[C@H]2CC[C@H](c3nn[nH]n3)CC2)ccc1-n1c(-c2cccnc2N)nc2ccc(-c3ccccc3)nc21 [Compound I-39, (1r,4r)-N-(5-(2-(2-aminopyridin-3-yl)-5-phenyl-3H-imidazo[4,5-b]pyridin-3-yl)-6-methylpyridin-2-yl)-4-(2H-tetrazol-5-yl)cyclohexane-1-carboxamide]	< 500 nM	200 to 500 nM
Cc1nc(NC(=O)c2cccc(-c3nsc(=O)[nH]3)c2)ccc1-n1c(-c2cccnc2N)nc2ccc(-c3ccccc3)nc21 [Compound I-40, N-(5-(2-(2-aminopyridin-3-yl)-5-phenyl-3H-imidazo[4,5-b]pyridin-3-yl)-6-methylpyridin-2-yl)-3-(5-oxo-4,5-dihydro-1,2,4-thiadiazol-3-yl)benzamide]	< 500 nM	< 50 nM
Nc1ncccc1-c1nc2ccc(-c3ccccc3)nc2n1-c1ccc(NC(=O)c2ccc(-c3nsc(=O)[nH]3)cc2F)nc1 [Compound I-41, N-(5-(2-(2-aminopyridin-3-yl)-5-phenyl-3H-imidazo[4,5-b]pyridin-3-yl)pyridin-2-yl)-2-fluoro-4-(5-oxo-4,5-dihydro-1,2,4-thiadiazol-3-yl)benzamide]	< 500 nM	50 to 200 nM
Cc1nc(NC(=O)c2ccc(-c3nsc(=O)[nH]3)cc2)ccc1-n1c(-c2cccnc2N)nc2ccc(-c3ccccc3)nc21 [Compound I-42, N-(5-(2-(2-aminopyridin-3-yl)-5-phenyl-3H-imidazo[4,5-b]pyridin-3-yl)-6-methylpyridin-2-yl)-4-(5-oxo-4,5-dihydro-1,2,4-thiadiazol-3-yl)benzamide]	< 500 nM	50 to 200 nM

— patent publication US20260200921A1, “SUBSTITUTED AMINOPYRIDINE COMPOUNDS AS AKT INHIBITORS” (Atavistik Bio, Inc., priority 2023, published 2026)
